From patent US20100278858A1, “PROCESS FOR PREPARING […] STRAINS” (priority 2007, published 2010)
Converted amounts (≈) assume the structure as drawn. Where two headings read alike, the source gives them in different places.

Key:
HSV-1 TK^− B2006 = assay: method of reducing viral plates (plaque reduction); type: cell-based; conditions: for Relative resistance (RR): IC50 of HSV-1 TK^− B2006 / IC50 of HSV-1 (F)
Method: (§1) According to the present invention, a method of reducing the viral plates comprises the following process: Vero cells monolayers developed in 24 wells microplates are infected with 50 UFP/well of virus in the absence or presence of different compounds concentrations. Each dilution is tested by duplicate. After 1 hour adsorption at 37° C., the inoculum is removed and covered by plating medium (culture media with methylcellulose at a final concentration of 0.7%). Inoculation is continued till the viral plates' appearance, which are then counted after fitting and dying the cells with violet crystal. Moreover, according to the present invention, 50% inhibitory concentration (IC50) means the compound concentration required for reducing about 50% the number of viral plates.
(§2) Thus, preliminary tests of the cloned variants of passages with greater selection pressure of 1C3 (17, 20 and 21) with pyrimidine and purine analogous as aciclovir (ACV) and brivudin (BVDU) would disclose alterations at viral TK level as it is shown in Table VIII, a characteristic that, up to date, has not been published in previous art documents. The TK gene is not essential for the in vitro viral replication, though in vivo, is involved in the virulence, pathogenicity and reactivation since latency (Andrei G et al., 2005). […] Therefore, the selection pressure to which the viruses were subjected could have selected mutations in the TK gene and in additional superimposing genes generating strains with less in vivo pathogenic action (Jacobson J et al., 1993).

HSV-2 (G) = type: cell-based; conditions: virus HSV-2 (G)
Method: as §1
(§3) Compounds were present during the viral adsorption (1h, 37° C.) and after the infection. When a cytopathic action (ACP) between 80-90%, during a period among 24 to 72 hours p.i., was observed, cells were lysed with freeze-thawing cycles. In order to remove cellular moieties, the cellular lisate was centrifuged during 10 min at 1000 rpm, keeping the supernatant at −70° C. The supernatant was used to infect a new monolayer in the presence of SAMMA or PRO2000. […] The title and the IC50 of each viral passage was determined by viral plates reduction test (or after 2-3 passages) against SAMMA or PRO20000.

1C3-syn-14-1 = assay: method of reducing viral plates (plaque reduction); type: cell-based, HSV-1; conditions: for Relative resistance (RR): IC50 of clone 1C3 syn 14-1 / IC50 of HSV-1 (F); for susceptibility of variant to drug (in words): variant 1C3-syn-14-1
Method: as §1, §3

1C3-syn-13-8 = assay: method of reducing viral plates (plaque reduction); type: cell-based, HSV-1
Method: as §1, §3

1C3 syn 17-2 = assay: method of reducing viral plates (plaque reduction); type: cell-based, HSV-1; conditions: for Relative resistance (RR): IC50 of clone 1C3 syn 17-2 / IC50 of HSV-1 (F); for IC50: strain 1C3 syn 17-2
Method: as §1, §2

1C3 syn 20-1 = assay: method of reducing viral plates (plaque reduction); type: cell-based, HSV-1; conditions: for Relative resistance (RR): IC50 of clone 1C3 syn 20-1 / IC50 of HSV-1 (F); for IC50: strain 1C3 syn 20-1
Method: as §1, §2

1C3 syn 21-1 = assay: method of reducing viral plates (plaque reduction); type: cell-based, HSV-1; conditions: for Relative resistance (RR): IC50 of clone 1C3 syn 21-1 / IC50 of HSV-1 (F); for IC50: strain 1C3 syn 21-1
Method: as §1, §2

1C3 syn 17-1 = assay: method of reducing viral plates (plaque reduction); type: cell-based, HSV-1; conditions: for Relative resistance (RR): IC50 of clone 1C3 syn 17-1 / IC50 of HSV-1 (F); for IC50: strain 1C3 syn 17-1
Method: as §1, §2

1C3 syn 20-3 = assay: method of reducing viral plates (plaque reduction); type: cell-based, HSV-1; conditions: for Relative resistance (RR): IC50 of clone 1C3 syn 20-3 / IC50 of HSV-1 (F); for IC50: strain 1C3 syn 20-3
Method: as §1, §2

1C3 syn 21-3 = assay: method of reducing viral plates (plaque reduction); type: cell-based, HSV-1; conditions: for Relative resistance (RR): IC50 of clone 1C3 syn 21-3 / IC50 of HSV-1 (F); for IC50: strain 1C3 syn 21-3
Method: as §1, §2

1C3 syn 20-2 = assay: method of reducing viral plates (plaque reduction); type: cell-based, HSV-1; conditions: for Relative resistance (RR): IC50 of clone 1C3 syn 20-2 / IC50 of HSV-1 (F)
Method: as §1, §2

1C3 syn 21-2 = assay: method of reducing viral plates (plaque reduction); type: cell-based, HSV-1; conditions: for Relative resistance (RR): IC50 of clone 1C3 syn 21-2 / IC50 of HSV-1 (F); for IC50: strain 1C3 syn 21-2
Method: as §1, §2

1C3 syn 17-3 = assay: method of reducing viral plates (plaque reduction); type: cell-based, HSV-1; conditions: for Relative resistance (RR): IC50 of clone 1C3 syn 17-3 / IC50 of HSV-1 (F); for IC50: strain 1C3 syn 17-3
Method: as §1, §2

HSV-1 (F) = assay: method of reducing viral plates (plaque reduction); type: cell-based
Method: as §1, §3

Pro2000-13-5 = assay: method of reducing viral plates (plaque reduction); type: cell-based, HSV-2
Method: as §1, §3
(§4) By the end of a year, the corresponding virus to passages 13 and 16 in the presence of PRO2000 and SAMMA, respectively, were cloned in monolayers of Vero cells developed in 6 wells plates. The cellular monolayers were infected with a limited dilution of virus and were coated with maintenance media (MM) containing agarose 0.6%. After 2 days incubation, cells were dyed with neutral red and clones were stippled. For clone amplification, Vero cells with each selected clone were infected; after 1 hour adsorption at 37° C., the innoculum was discarded and was covered with MM, subjected to incubation 24-48 h at 37° C. till ACP development was observed.

SAMMA-15-7 = assay: method of reducing viral plates (plaque reduction); type: cell-based, HSV-2
Method: as §1, §3, §4

Pro2000-syn13-1 = assay: method of reducing viral plates (plaque reduction); type: cell-based, HSV-2
Method: as §1, §3, §4

Pro2000-13-10 = assay: method of reducing viral plates (plaque reduction); type: cell-based, HSV-2
Method: as §1, §3, §4

Pro2000-syn13-9 = assay: method of reducing viral plates (plaque reduction); type: cell-based, HSV-2
Method: as §1, §3, §4

SAMMA-15-3 = assay: method of reducing viral plates (plaque reduction); type: cell-based, HSV-2
Method: as §1, §3, §4

[1] = Human alphaherpesvirus 1, read-out: IC50

Heparine
Relative resistance (RR) (HSV-1 TK^− B2006): 3.0 | IC50 (HSV-1 TK^− B2006; strain HSV-1 TK^− B2006): 3.5 µg/mL | IC50 (HSV-2 (G)): 1.8 µg/mL | RR (relative resistance) (1C3-syn-14-1; Table IV, IC50 of variant 1C3-syn-14-1 / IC50 for HSV-1 (F)): 2.9 | IC50 (1C3-syn-14-1; Table IV, virus 1C3-syn-14-1): 4.1 µg/mL | Relative resistance (RR) (1C3-syn-14-1; Table VIII): 5.7 | IC50 (1C3-syn-14-1; Table VIII, strain 1C3 syn 14-1): 7.1 µg/mL | susceptibility of variant to drug (in words) (1C3-syn-14-1): resistant | RR (relative resistance) (1C3-syn-13-8; IC50 of variant 1C3-syn-13-8 / IC50 for HSV-1 (F)): 0.9 | IC50 (1C3-syn-13-8; Table IV, virus 1C3-syn-13-8): 1.2 µg/mL | susceptibility of variant to drug (in words) (1C3-syn-13-8; variant 1C3-syn-13-8): sensitive | Relative resistance (RR) (1C3 syn 17-2): > 16.0 | IC50 (1C3 syn 17-2): > 20 µg/mL | Relative resistance (RR) (1C3 syn 20-1): > 16.0 | IC50 (1C3 syn 20-1): > 20 µg/mL | Relative resistance (RR) (1C3 syn 21-1): 8.0 | IC50 (1C3 syn 21-1): 10.0 µg/mL | Relative resistance (RR) (1C3 syn 17-1): 8.0 | IC50 (1C3 syn 17-1): 10.0 µg/mL | Relative resistance (RR) (1C3 syn 20-3): > 16.0 | IC50 (1C3 syn 20-3): > 20 µg/mL | Relative resistance (RR) (1C3 syn 21-3): 5.7 | IC50 (1C3 syn 21-3): 7.1 µg/mL | Relative resistance (RR) (1C3 syn 20-2): > 16.0 | IC50 (1C3 syn 20-2; strain 1C3 syn 20-2): > 20 µg/mL | Relative resistance (RR) (1C3 syn 21-2): 8.0 | IC50 (1C3 syn 21-2): 10.0 µg/mL | Relative resistance (RR) (1C3 syn 17-3): 5.7 | IC50 (1C3 syn 17-3): 7.1 µg/mL | IC50 (HSV-1 (F); Table IV, virus HSV-1 (F)): 1.4 µg/mL | IC50 (HSV-1 (F); Table VIII, strain HSV-1 (F)): 1.25 µg/mL | RR (relative resistance) (Pro2000-13-5; IC50 of variant Pro2000-13-5 / IC50 for HSV-2 (G)): 1.2 | IC50 (Pro2000-13-5; virus Pro2000-13-5): 2.2 µg/mL | RR (relative resistance) (SAMMA-15-7; IC50 of variant SAMMA-15-7 / IC50 for HSV-2 (G)): 6.7 | IC50 (SAMMA-15-7; virus SAMMA-15-7): 12.0 µg/mL | RR (relative resistance) (Pro2000-syn13-1; IC50 of variant Pro2000-syn13-1 / IC50 for HSV-2 (G)): 4.3 | IC50 (Pro2000-syn13-1; virus Pro2000-syn13-1): 7.8 µg/mL | RR (relative resistance) (Pro2000-13-10; IC50 of variant Pro2000-13-10 / IC50 for HSV-2 (G)): 1.4 | IC50 (Pro2000-13-10; virus Pro2000-13-10): 2.6 µg/mL | RR (relative resistance) (Pro2000-syn13-9; IC50 of variant Pro2000-syn13-9 / IC50 for HSV-2 (G)): 10.8 | susceptibility of variant to drug (in words) (Pro2000-syn13-9; variant Pro2000-syn-13-9): resistant | IC50 (Pro2000-syn13-9; virus Pro2000-syn13-9): 19.5 µg/mL | RR (relative resistance) (SAMMA-15-3; IC50 of variant SAMMA-15-3 / IC50 for HSV-2 (G)): 4.6 | susceptibility of variant to drug (in words) (SAMMA-15-3; variant SAMMA-15-3): resistant | IC50 (SAMMA-15-3; virus SAMMA-15-3): 8.4 µg/mL

O=c1[nH]c(=O)n([C@H]2C[C@H](O)[C@@H](CO)O2)cc1/C=C/Br [Brivudin, brivudin]
IC50 (HSV-1 TK^− B2006; Human alphaherpesvirus 1): > 0.16 µg/mL | Relative resistance (RR) (HSV-1 TK^− B2006): 16.0 | IC50 (1C3-syn-14-1; Human alphaherpesvirus 1, Table VIII, strain 1C3 syn 14-1, read-out: IC50): 0.02 µg/mL (≈ 0.06 µM) | Relative resistance (RR) (1C3-syn-14-1; Table VIII): 2.0 | susceptibility of variant to drug (in words) (1C3-syn-14-1): rare resistance | IC50 (1C3 syn 17-2; [1]): 0.13 µg/mL (≈ 0.39 µM) | Relative resistance (RR) (1C3 syn 17-2): 13.0 | IC50 (1C3 syn 20-1; [1]): 0.08 µg/mL (≈ 0.24 µM) | Relative resistance (RR) (1C3 syn 20-1): 8.0 | IC50 (1C3 syn 21-1; [1]): 0.04 µg/mL (≈ 0.12 µM) | Relative resistance (RR) (1C3 syn 21-1): 4.0 | IC50 (1C3 syn 17-1; [1]): 0.08 µg/mL (≈ 0.24 µM) | Relative resistance (RR) (1C3 syn 17-1): 8.0 | IC50 (1C3 syn 20-3; [1]): 0.06 µg/mL (≈ 0.18 µM) | Relative resistance (RR) (1C3 syn 20-3): 6.0 | IC50 (1C3 syn 21-3; [1]): 0.06 µg/mL (≈ 0.18 µM) | Relative resistance (RR) (1C3 syn 21-3): 6.0 | IC50 (1C3 syn 20-2; Human alphaherpesvirus 1): 0.05 µg/mL (≈ 0.15 µM) | Relative resistance (RR) (1C3 syn 20-2): 5.6 | IC50 (1C3 syn 21-2; [1]): 0.06 µg/mL (≈ 0.18 µM) | Relative resistance (RR) (1C3 syn 21-2): 6.0 | IC50 (1C3 syn 17-3; [1]): 0.08 µg/mL (≈ 0.24 µM) | Relative resistance (RR) (1C3 syn 17-3): 8.0 | IC50 (HSV-1 (F); Human alphaherpesvirus 1, Table VIII, strain HSV-1 (F), read-out: IC50): 0.01 µg/mL (≈ 0.03 µM)
